Laboratory results taken from US20250059220A1, “SUBSTITUTED BENZOTHIOPHENE DERIVATIVES AND METHODS OF USE THEREOF” (Merck Sharp & Dohme LLC, priority 2021, published 2025).

Experiments:
human PTPN1 (1-435) = human PTPN1 (1-435) (Homo sapiens (Human), UniProt P18031); assay: Human PTPN1 Biochemical Assay; conditions: DiFMUP substrate, read-out: PTP1B IC50
Method: Human PTPN1 Biochemical Assay
Test compounds were dissolved in DMSO, and 10-point serial 3-fold dilution series in DMSO were prepared in Echo Qualified 384-well Polypropylene Microplates (Labcyte, San Jose, CA) (top concentration 50 µM). […] 5 μl of assay buffer was added into the low control. The plate was incubated for 30 minutes at room temperature. Subsequently, 5 μl of 100 µM DiFMUP (6,8-difluoro-4-methylumbelliferyl phosphate) solution (prepared in assay buffer from 10 mM stock in DMSO) was added to the assay plate and incubated for 1 hour at room temperature. For detection, assay plates were read on SpectraMax Microplate Reader (Molecular Devices), with Excitation wavelength=360 nm and Emission wavelength=460 nm. […] Calculated % effects were fit using a 4-parameter algorithm, and EC50 was reported.

human PTPN2 (1-387) = human PTPN2 (1-387) (Homo sapiens (Human), UniProt P17706); assay: Human PTPN2 Biochemical Assay; conditions: DiFMUP substrate
Method: Human PTPN2 Biochemical Assay
Test compounds were dissolved in DMSO, and 10-point serial 3-fold dilution series in DMSO were prepared in Echo Qualified 384-well Polypropylene Microplates (Labcyte, San Jose, CA) (top concentration 50 µM). Assay plates (384-well low volume black plates; Corning #3820, Corning, NY) were prepared by dispensing 50 nL of test compound, and DMSO (for high and low controls) by ECHO acoustic dispenser (Labcyte, San Jose CA). This was followed by addition of 5 μL of 0.2 nM human PTPN2 (1-387) solution (prepared in the assay buffer, 50 mM Tris pH 7.4, 150 mM NaCl, 0.01% Tween20, 0.5 mM dithiothreitol) to all wells except the low control. 5 μl of assay buffer was added into the low control, then the plate was incubated for 30 minutes at room temperature. Subsequently, 5 μl of 100 µM DiFMUP (6,8-difluoro-4-methylumbelliferyl phosphate) solution (prepared in assay buffer from 10 mM stock in DMSO) was added to the assay plate and incubated for 1 hour at room temperature. For detection, assay plates were read on SpectraMax Microplate Reader (Molecular Devices), with Excitation wavelength=360 nm and Emission wavelength=460 nm. Test compound effects were normalized to the window defined by the controls, DMSO/buffer, and DMSO/50 pM human PTPN2. Calculated % effects were fit using a 4-parameter algorithm, and EC50 was reported.

human PTPN1 (1-435), sequence (P18031 whole entry): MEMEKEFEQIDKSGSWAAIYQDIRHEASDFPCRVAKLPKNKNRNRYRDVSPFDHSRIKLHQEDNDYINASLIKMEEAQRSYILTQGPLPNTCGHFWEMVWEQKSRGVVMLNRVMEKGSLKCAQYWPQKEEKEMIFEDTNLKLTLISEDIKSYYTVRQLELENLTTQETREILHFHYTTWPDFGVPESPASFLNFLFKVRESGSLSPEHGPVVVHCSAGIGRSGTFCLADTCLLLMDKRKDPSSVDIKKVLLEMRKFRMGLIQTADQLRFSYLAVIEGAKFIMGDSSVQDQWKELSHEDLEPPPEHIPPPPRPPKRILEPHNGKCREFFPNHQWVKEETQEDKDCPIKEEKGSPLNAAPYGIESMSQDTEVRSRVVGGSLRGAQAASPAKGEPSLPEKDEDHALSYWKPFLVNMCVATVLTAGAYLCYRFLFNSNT
human PTPN2 (1-387), sequence (P17706 other isoform, or with tags, fused parts or gaps): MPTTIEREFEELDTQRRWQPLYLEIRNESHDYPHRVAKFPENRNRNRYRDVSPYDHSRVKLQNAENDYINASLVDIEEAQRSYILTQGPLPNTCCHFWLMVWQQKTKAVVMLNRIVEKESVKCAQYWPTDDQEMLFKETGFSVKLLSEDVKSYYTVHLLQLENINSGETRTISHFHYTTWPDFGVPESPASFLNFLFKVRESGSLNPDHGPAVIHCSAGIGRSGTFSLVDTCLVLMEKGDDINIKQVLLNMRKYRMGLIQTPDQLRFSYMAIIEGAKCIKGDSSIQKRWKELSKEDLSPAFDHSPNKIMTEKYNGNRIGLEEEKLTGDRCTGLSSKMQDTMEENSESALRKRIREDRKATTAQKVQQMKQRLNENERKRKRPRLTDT

SMILES	IC50 (human PTPN1 (1-435))	IC50 (human PTPN2 (1-387))
O=C(NC1CCS(=O)(=O)C1)c1ccc2sc(C(F)(F)P(=O)(O)O)c(Br)c2c1 (centres unmarked) [Compound 56]	2.88 µM	3.93 µM
O=C(N[C@@H]1[C@@H]2COC[C@@H]21)c1ccc2sc(C(F)(F)P(=O)(O)O)c(Br)c2c1 [Compound 57]	4.33 µM	5.09 µM
CN1CCCC(NC(=O)c2ccc3sc(C(F)(F)P(=O)(O)O)c(Br)c3c2)C1 (centres unmarked) [Compound 58]	9.05 µM	7.9 µM
O=C(NCCC1CC1)c1ccc2sc(C(F)(F)P(=O)(O)O)c(Br)c2c1 [Compound 59]	1.39 µM	0.55 µM
CC(C)OCCNC(=O)c1ccc2sc(C(F)(F)P(=O)(O)O)c(Br)c2c1 [Compound 60]	5.72 µM	2.53 µM
O=C(Nc1cccc(-c2cnco2)c1)c1ccc2sc(C(F)(F)P(=O)(O)O)c(Br)c2c1 [Compound 61]	0.638 µM	0.904 µM
O=C(Nc1ccccc1-c1ccccc1)c1ccc2sc(C(F)(F)P(=O)(O)O)c(Br)c2c1 [Compound 62]	2 µM	1.61 µM
CC1CCc2c(sc(NC(=O)c3ccc4sc(C(F)(F)P(=O)(O)O)c(Br)c4c3)c2C#N)C1 (centres unmarked) [Compound 63]	0.444 µM	0.542 µM
O=C(Nc1ccc(Cn2cccn2)cc1)c1ccc2sc(C(F)(F)P(=O)(O)O)c(Br)c2c1 [Compound 64]	1.44 µM	1.8 µM
O=C(NC(c1ccccc1)c1cccnc1)c1ccc2sc(C(F)(F)P(=O)(O)O)c(Br)c2c1 (centres unmarked) [Compound 65]	4.3 µM	4.85 µM
N#Cc1cccc(-c2cccc(NC(=O)c3ccc4sc(C(F)(F)P(=O)(O)O)c(Br)c4c3)c2)c1 [Compound 66]	0.516 µM	0.719 µM
O=C(NC1CCN(Cc2ccccc2)C1)c1ccc2sc(C(F)(F)P(=O)(O)O)c(Br)c2c1 (centres unmarked) [Compound 67]	3.18 µM	4.89 µM
O=C(NC1CCCN(Cc2ccccc2F)C1)c1ccc2sc(C(F)(F)P(=O)(O)O)c(Br)c2c1 (centres unmarked) [Compound 68]	3.77 µM	4.24 µM
C[C@@H](Cc1cccc(C(F)(F)F)c1)NC(=O)c1ccc2sc(C(F)(F)P(=O)(O)O)c(Br)c2c1 [Compound 69]	6.25 µM	4.16 µM
CC(C)(NC(=O)c1ccc2sc(C(F)(F)P(=O)(O)O)c(Br)c2c1)c1ncn(-c2ccccc2)n1 [Compound 70]	9.21 µM	8.75 µM
CC(NC(=O)c1ccc2sc(C(F)(F)P(=O)(O)O)c(Br)c2c1)c1cccc2ccccc12 (centres unmarked) [Compound 71]	3.65 µM	3.53 µM
O=C(NCCc1cnc2n(c1=O)CCCC2)c1ccc2sc(C(F)(F)P(=O)(O)O)c(Br)c2c1 [Compound 72]	2.75 µM	3.52 µM
Cc1cc(NC(=O)c2ccc3sc(C(F)(F)P(=O)(O)O)c(Br)c3c2)n(Cc2ccccc2)n1 [Compound 73]	2.56 µM	3.08 µM
CC(=O)N1CCC(CNC(=O)c2ccc3sc(C(F)(F)P(=O)(O)O)c(Br)c3c2)(C(F)(F)F)C1 (centres unmarked) [Compound 74]	5.76 µM	7.44 µM
O=C(N[C@@H]1CCCC[C@H]1OCc1ccccc1)c1ccc2sc(C(F)(F)P(=O)(O)O)c(Br)c2c1 [Compound 75]	1.85 µM	2.7 µM
O=C(NC1CCCN(c2ccccc2)C1)c1ccc2sc(C(F)(F)P(=O)(O)O)c(Br)c2c1 (centres unmarked) [Compound 76]	1.88 µM	0.958 µM
CC(=O)N1CCc2ccc(NC(=O)c3ccc4sc(C(F)(F)P(=O)(O)O)c(Br)c4c3)cc21 [Compound 77]	0.73 µM	1.11 µM
CN1C[C@H]2[C@H](CNC(=O)c3ccc4sc(C(F)(F)P(=O)(O)O)c(Br)c4c3)[C@H]2c2ccccc21 [Compound 78]	1.09 µM	1.03 µM

SMILES	IC50 (human PTPN1 (1-435))	IC50 (human PTPN2 (1-387))
O=C(N[C@H]1CC(=O)N(C2CC2)C1)c1ccc2sc(C(F)(F)P(=O)(O)O)c(Br)c2c1 [Compound 79]	8.1 µM	9.75 µM
CC(NC(=O)c1ccc2sc(C(F)(F)P(=O)(O)O)c(Br)c2c1)c1ccc2c(c1)OCCO2 (centres unmarked) [Compound 80]	2.13 µM	1.89 µM
CC(Cn1ccc2ccccc21)NC(=O)c1ccc2sc(C(F)(F)P(=O)(O)O)c(Br)c2c1 (centres unmarked) [Compound 81]	0.115 µM	0.0273 µM
O=C(NCCc1nc(-c2ccccc2)cs1)c1ccc2sc(C(F)(F)P(=O)(O)O)c(Br)c2c1 [Compound 82]	1.39 µM	1.88 µM
N#Cc1ccc2c(c1)CC(NC(=O)c1ccc3sc(C(F)(F)P(=O)(O)O)c(Br)c3c1)C2 (centres unmarked) [Compound 83]	1.63 µM	2.01 µM
CCC(COCc1ccccc1)NC(=O)c1ccc2sc(C(F)(F)P(=O)(O)O)c(Br)c2c1 (centres unmarked) [Compound 84]	7.43 µM	3.47 µM
CCN1C(=O)CCC12C[C@H]2CCNC(=O)c1ccc2sc(C(F)(F)P(=O)(O)O)c(Br)c2c1 (some centres unmarked) [Compound 85]	4.67 µM	4.54 µM
O=C(N[C@@H]1CCCC[C@H]1c1ccccc1)c1ccc2sc(C(F)(F)P(=O)(O)O)c(Br)c2c1 [Compound 86]	3.78 µM	1.45 µM
COc1ccc(CCC(C)NC(=O)c2ccc3sc(C(F)(F)P(=O)(O)O)c(Br)c3c2)cc1 (centres unmarked) [Compound 87]	7.09 µM	3.3 µM
O=C(NC[C@]12C[C@@H]1CCN2Cc1ccccc1)c1ccc2sc(C(F)(F)P(=O)(O)O)c(Br)c2c1 [Compound 88]	1.09 µM	1.51 µM
O=C(NCCn1nnc2ccccc21)c1ccc2sc(C(F)(F)P(=O)(O)O)c(Br)c2c1 [Compound 89]	5.12 µM	6.04 µM
O=C(NCc1ccccc1N1CCOCC1)c1ccc2sc(C(F)(F)P(=O)(O)O)c(Br)c2c1 [Compound 90]	4.21 µM	5.8 µM
O=C(NCc1nccc(-c2cccnc2)n1)c1ccc2sc(C(F)(F)P(=O)(O)O)c(Br)c2c1 [Compound 91]	4.98 µM	6.17 µM
CC(C)(O)c1ccc(CNC(=O)c2ccc3sc(C(F)(F)P(=O)(O)O)c(Br)c3c2)cn1 [Compound 92]	1.94 µM	3.16 µM
CC(C)C1CC(CNC(=O)c2ccc3sc(C(F)(F)P(=O)(O)O)c(Br)c3c2)C1 (centres unmarked) [Compound 93]	4.13 µM	4.33 µM
O=C(NCCc1c[nH]c2ccc(F)cc12)c1ccc2sc(C(F)(F)P(=O)(O)O)c(Br)c2c1 [Compound 94]	2.4 µM	2.8 µM
COc1cccc(CNC(=O)c2ccc3sc(C(F)(F)P(=O)(O)O)c(Br)c3c2)c1OC(F)F [Compound 95]	3.9 µM	4.78 µM
Cn1cc(NC(=O)c2ccc3sc(C(F)(F)P(=O)(O)O)c(Br)c3c2)cn1 [Compound 96]	0.94 µM	1.28 µM
O=C(N[C@H]1CCCNC1=O)c1ccc2sc(C(F)(F)P(=O)(O)O)c(Br)c2c1 [Compound 97]	7.08 µM	8.23 µM
CC1CCCC(NC(=O)c2ccc3sc(C(F)(F)P(=O)(O)O)c(Br)c3c2)C1 (centres unmarked) [Compound 98]	4.57 µM	4.73 µM
CCn1nccc1NC(=O)c1ccc2sc(C(F)(F)P(=O)(O)O)c(Br)c2c1 [Compound 99]	2.62 µM	3.79 µM
O=C(Nc1ccc(Sc2ccccc2)nc1)c1ccc2sc(C(F)(F)P(=O)(O)O)c(Br)c2c1 [Compound 100]	0.54 µM	0.682 µM
O=C(Nc1cccc(C(=O)N2CCCC2)c1)c1ccc2sc(C(F)(F)P(=O)(O)O)c(Br)c2c1 [Compound 101]	1.78 µM	2.36 µM
